The record followed here is US4542145A, “Substituted N-[(1H-1,2,4-triazol-1-yl)-alkyl]heteroarylcarboxamides” (American Cyanamid Company, priority 1984, dated 1985).

Where a name gives a salt, the structure may show the parent alone.

Experiment [1] has as its target T1, thromboxane synthetase (Rattus norvegicus, UniProt P49430).
T1 construct: The platelets were isolated by centrifuging the PRP; endogenous in cells; host or cells: washed platelets from arterial blood of Okamoto-Aoki spontaneously hypertensive rats (Taconic Farms)
T1 sequence (P49430 1-533): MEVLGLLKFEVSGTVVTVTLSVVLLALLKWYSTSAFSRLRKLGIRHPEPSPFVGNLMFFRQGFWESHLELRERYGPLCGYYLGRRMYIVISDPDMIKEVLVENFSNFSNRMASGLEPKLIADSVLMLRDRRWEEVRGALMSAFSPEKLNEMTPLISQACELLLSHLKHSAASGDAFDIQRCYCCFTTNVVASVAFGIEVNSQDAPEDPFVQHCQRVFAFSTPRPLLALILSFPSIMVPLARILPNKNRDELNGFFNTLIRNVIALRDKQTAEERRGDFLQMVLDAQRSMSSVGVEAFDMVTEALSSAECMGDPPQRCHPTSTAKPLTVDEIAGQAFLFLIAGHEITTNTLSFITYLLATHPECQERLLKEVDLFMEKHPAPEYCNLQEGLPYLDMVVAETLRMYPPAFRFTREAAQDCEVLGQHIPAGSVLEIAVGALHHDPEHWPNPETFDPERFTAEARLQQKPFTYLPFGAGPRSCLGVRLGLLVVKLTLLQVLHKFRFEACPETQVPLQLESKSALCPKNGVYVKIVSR
The experiment in a line: Inhibition of thromboxane (TXB2) formation in washed SHR platelets, RIA. In kind it is cell-based, spontaneously hypertensive rats (Okamoto-Aoki). The settings on record: 10 min, Dose 10^-4 (unit inferred), about 10 minutes at about 37° C. Here is the method: Under urethan anesthesia, about 10 μl arterial blood was collected in approximately 1 ml. of about 3.2% sodium citrate in a polystyrene tube from Okamoto-Aoki spontaneously hypertensive rats (SHR) (Taconic Farms, Germantown, N.Y.) between 19 and 24 weeks in age. The blood was diluted with about 3 ml of cold saline and centrifuged at room temperature for about 15 minutes at 460 xg. The platelet rich plasma (PRP) was separated. The platelets were isolated by centrifuging the PRP for about 10 minutes at 1060 xg and were washed in about 4 ml of cold oxygenated Krebs phosphate buffer, about pH 7.4. The chilled platelets recovered from centrifuging at 800 xg for about 10 minutes were resuspended in oxygenated Krebs phosphate buffer and diluted to contain 4.5-6.0×10^4 platelets/μl.
The inhibition of thromboxane (TX) formation was studied by determining the concentration of thromboxane B2 (TXB2), the stable hydrolysis product of TXA2. Assay samples, prepared on ice, contained about 200 μl platelet suspension, about 50 μl saline and about 50 μl vehicle or drug under study. The samples were incubated for about 10 minutes at about 37° C. in a metabolic shaker. The reaction was terminated by immersing the tubes in an ice bath and adding about 50 μl of approximately 0.5 M citric acid. The samples were centrifuged for about 10 minutes in a refrigerated centrifuge and the supernatants thus obtained were decanted and stored at about-20° C. The TXB2 content for each sample was determined by a direct radioimmunoassay (RIA) utilizing a TXB2 specific RIA kit purchased from New England Nuclear, Boston, Mass. and expressed as pg TXB2 formed minute^-1 sample^-1, from which the percent inhibition of TXB2 formation was calculated.

The test system of experiment [2] is spontaneously hypertensive rats. Briefly: Hypotensive activity in spontaneously hypertensive rats (mean arterial blood pressure). The class given is in vivo, spontaneously hypertensive rats (Okamoto strain). The settings on record: oral gavage, about 100 mg/kg or less, two doses 24 h apart, 0.9% NaCl loading with first; about 28 hours after initial dose; SHR average MABP 170±1.5 mm of mercury; (No. of rats) in parentheses. Here is the method:
The novel compounds of the present invention are active hypotensive agents and were tested for hypotensive activity by the method of P. S. Chan and D. Poorvin, Clinical and Experimental Hypertension, 1 (6), 817-830 (1979). Male, 16 week old, spontaneously hypertensive rats of the Okamoto strain, from Taconic Farms, Germantown, N.Y., having an average mean arterial blood pressure of 170±1.5 mm of mercury are used in the test. One to 3 rats are used per test compound. A rat is dosed by gavage with a test compound, suspended in approximately 2% pre-boiled starch at a concentration of about 50 mg/ml, at a dose of about 100 mg/kg of body weight or less, with approximately 0.9% sodium chloride loading at a dose of about 25 ml/kg of body weight. A second identical dose of the test compound, without sodium chloride loading is given about 24 hours later. At about 28 hours after the initial dose the mean arterial blood pressure is measured by the method of Chan and Poorvin vide supra. The procedure is repeated in a second and third rat when necessary.

Turning to `O=C(NCCn1cncn1)c1sc2ccccc2c1Cl` [3-Chloro-N-[2-(1H-1,2,4-triazol-1-yl)ethyl]-benzo[b]thiophene-2-carboxamide], in experiment [1], at 100 µM the inhibition was 90%. Take `O=C(NCCCCn1cncn1)c1sc2ccccc2c1Cl` [3-Chloro-N-[4-(1H-1,2,4-triazol-1-yl)-butyl]benzo[b]thiophene-2-carboxamide]: 100 µM produced 90% inhibition in experiment [1]. Moreover, in experiment [2], the “MABP (mean arterial blood pressure)” value amounted to 119 m Hg.

`O=C(NCCCn1cncn1)c1sc2ccccc2c1Cl` [3-chloro-N--[3-(1H--1,2,4-triazol-1-yl)propyl]-benzo[b]thiophene-2-carboxamide]: in experiment [1], testing at 100 µM gave an inhibition of 60%. In addition, the “MABP (mean arterial blood pressure)” value in experiment [2] was determined as 137 m Hg. In the case of `O=C(NCCCn1cncn1)c1cc(Br)c(Br)s1` [4,5-dibromo-N--[3-(1H--1,2,4-triazol-1-yl)-propyl]-2-thiophene-carboxamide], the inhibition (usually the change of the read-out against control, counted positive when it falls) at 100 µM in experiment [1] was 86%. In experiment [2], the “MABP (mean arterial blood pressure)” value stood at 137 m Hg.

Consider `O=C(NCCCn1cncn1)c1ccc([N+](=O)[O-])o1` [5-Nitro-N-[3-(1H-1,2,4-triazol-y)propyl]-2-furancarboxamide], for which, in experiment [1], testing at 100 µM gave an inhibition of 70%. For the same compound, the “MABP (mean arterial blood pressure)” value in experiment [2] was 132 m Hg.

For the compound `O=C(NCCCn1cncn1)c1ccc(Br)o1` [5-bromo-N--[3-(1H--1,2,4-triazol-1-yl)propyl]-2-furancarboxamide], the inhibition at 100 µM in experiment [1] stood at 61%. In addition, the “MABP (mean arterial blood pressure)” value in experiment [2] was 107 m Hg.

On to `O=C(NCCCn1cncn1)c1ccc(Cl)s1` [5-chloro-N--[3-(1H--1,2,4-triazol-1-yl)propyl]-2-thiophenecarboxamide], for which the inhibition at 100 µM in experiment [1] amounted to 64%. Also, in experiment [2], the “MABP (mean arterial blood pressure)” value came out at 135 m Hg. `Cc1ccc(C(=O)NCCCn2cncn2)s1` [5-methyl-N--[3-(1H--1,2,4-triazol-1-yl)propyl]-2-thiophenecarboxamide] registered an inhibition at 100 µM in experiment [1] of 56%.

`O=C(NCCCn1cncn1)c1cc2ccccc2o1` [N--[3-(1H--1,2,4-triazol-1-yl)propyl]-2-benzo-furancarboxamide]: in experiment [1], the inhibition at 100 µM amounted to 84%. Also, the “MABP (mean arterial blood pressure)” value in experiment [2] was found to be 135 m Hg. In the case of `O=C(NCCCn1cncn1)c1ccco1` [N--[3-(1H--1,2,4-triazol-1-yl)propyl]-2-furancarboxamide, fumarate], the “MABP (mean arterial blood pressure)” value in experiment [2] is listed as 116 m Hg. The compound `O=C(NCCCn1cncn1)c1cccs1` [N--[3-(1H--1,2,4-triazol-1-yl)propyl]-2-thio-phenecarboxamide] yielded an inhibition at 100 µM in experiment [1] of 30%. Also, the “MABP (mean arterial blood pressure)” value in experiment [2] turned out to be 130 m Hg. In experiment [1], `O=C(C=Cc1cccs1)NCCCn1cncn1` [N--[3-(1H--1,2,4-triazol-1-yl)propyl]-3-(2-thien-yl)-2-propenamide] yielded an inhibition at 100 µM of 68%. In turn, `O=C(NCCCn1cncn1)c1ccoc1` [N--[3-(1H--1,2,4-triazol-1-yl)propyl]-3-furan-carboxamide] yielded an inhibition at 100 µM in experiment [1] of 55%. Besides, in experiment [2], the “MABP (mean arterial blood pressure)” value came to 135 m Hg. In experiment [1], `O=C(NCCCn1cncn1)c1ccco1` [N-[3-(1H-1,2,4-Triazol-1-yl)propyl]-2-furancarboxamide] gave an inhibition at 100 µM of 65%.
